Assay results taken from patent US20090263451A1, “Anti-Inflammatory and/or Analgesic Agents for Treatment of Myofascial Pain” (Warsaw Orthopedic, Inc., priority 2008, published 2009).

Tests used:
[1] = test system: Rat Chronic Constriction Injury Model; settings: 0.02 mg/kg/day subcutaneously; compared to unloaded polymer depots; FIG. 4
Source text: (§1) A 2-month chronic constriction injury (CCI) model of neuropathic pain was used to evaluate different formulations of a clonidine, encapsulated in bioerodable polymers compared to clonidine given subcutaneously (SC).
(§2) The inventors evaluated the efficacy of a five Month Clonidine/Polymer Drug Depot in the Rat Chronic Constriction Injury Model. The animal model was the Bennett Model (Wistar rat). The purpose: To determine whether a five month polymer clonidine-eluting depot can improve pain associated behavioral responses in a rat model of neuropathic pain.
(§3) Experimental Design: Four loose chromic gut ligatures, 1 mm apart, were tied around the common sciatic nerve at mid-thigh. Each animal received treatment of test or control article-according to the dosing described in Table 5.
(§4) The inventors have conducted the present study for a period of 64 days and have employed the following two tests: (1) the Hargreaves test; and (2) the von Frey test. The Hargreaves Tests of Thermal Hyperalgesia were conducted on days 7, 14, 21, 28, 35, 42, 49, 56 and 63. The von Frey monofilament test of mechanical allodynia (performed the day following Thermal testing) were conducted on days-8, 15, 22, 29, 36, 43, 50, 57 and 64.

[2] = test system: Rat Chronic Constriction Injury Model; settings: 0.02 mg/kg/day subcutaneously; vs. 45% for unloaded polymer depots; FIG. 3
Source text: as §1, §2, §3, §4

**Q.** Which results are given for `Clc1cccc(Cl)c1N=C1NCCN1` [clonidine, 2,6-dichloro-N-2-imidazolidinyldenebenzenamine]?
**A.** pain behavioral response (percentage of baseline), mechanical allodynia [1]: reduced the behavioral response; pain behavioral response (percentage of baseline), thermal hyperalgesia [2]: 58%
